Patent publication US8710038B2, “Pyrazole kinase modulators and methods of use” (Exelixis, Inc., priority 2004, dated 2014)

Experiments:
EphB4 = molecular target: T1, EphB4 (Homo sapiens, UniProt P54760); assay: EphB4 kinase inhibition assay; assay type: biochemical
T1 sequence (P54760 16-987): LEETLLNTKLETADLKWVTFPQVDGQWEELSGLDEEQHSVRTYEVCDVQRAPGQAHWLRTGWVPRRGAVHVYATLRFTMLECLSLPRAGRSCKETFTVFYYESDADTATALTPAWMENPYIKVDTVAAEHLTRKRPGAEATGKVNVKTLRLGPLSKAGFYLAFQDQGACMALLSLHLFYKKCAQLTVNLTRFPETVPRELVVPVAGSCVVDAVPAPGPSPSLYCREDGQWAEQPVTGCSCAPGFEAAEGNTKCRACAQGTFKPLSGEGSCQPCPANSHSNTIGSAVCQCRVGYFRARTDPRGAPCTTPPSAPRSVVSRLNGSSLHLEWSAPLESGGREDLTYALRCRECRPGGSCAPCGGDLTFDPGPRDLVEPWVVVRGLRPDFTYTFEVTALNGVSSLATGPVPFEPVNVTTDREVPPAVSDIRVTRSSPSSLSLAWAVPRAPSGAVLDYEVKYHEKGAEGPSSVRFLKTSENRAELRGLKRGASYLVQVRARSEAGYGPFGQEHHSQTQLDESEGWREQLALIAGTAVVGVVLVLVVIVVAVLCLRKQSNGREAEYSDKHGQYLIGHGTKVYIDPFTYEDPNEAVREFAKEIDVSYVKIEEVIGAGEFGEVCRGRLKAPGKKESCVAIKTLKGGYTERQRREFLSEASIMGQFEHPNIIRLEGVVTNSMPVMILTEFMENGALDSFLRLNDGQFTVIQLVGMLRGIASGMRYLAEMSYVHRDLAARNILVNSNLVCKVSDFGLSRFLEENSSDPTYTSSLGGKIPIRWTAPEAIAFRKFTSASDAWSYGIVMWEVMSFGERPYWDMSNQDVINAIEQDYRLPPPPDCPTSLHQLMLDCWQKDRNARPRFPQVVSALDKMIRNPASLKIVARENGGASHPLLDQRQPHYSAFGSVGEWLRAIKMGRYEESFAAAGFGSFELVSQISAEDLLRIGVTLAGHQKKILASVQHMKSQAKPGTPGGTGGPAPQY
Outline: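 ATP near each kinase's KM; 10-point dose-response fitted to a four-parameter equation for IC50. Formats: γ33P-ATP transfer to plate-coated substrate (1.5-2.5 h, ambient, scintillation), luciferase-coupled ATP-consumption read-out (2-4 h, 25-45% ATP consumed), or AlphaScreen with biotinylated poly(Glu,Tyr) 4:1 (1 h).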

flt-3 = molecular target: T2, flt-3 (Homo sapiens, UniProt P36888); assay: flt-3 Luciferase-Coupled Chemiluminescent Kinase assay (LCCA); assay type: biochemical
T2 construct: baculovirus expressed human Flt-3 kinase domain R571-S993
T2 sequence (P36888 571-993): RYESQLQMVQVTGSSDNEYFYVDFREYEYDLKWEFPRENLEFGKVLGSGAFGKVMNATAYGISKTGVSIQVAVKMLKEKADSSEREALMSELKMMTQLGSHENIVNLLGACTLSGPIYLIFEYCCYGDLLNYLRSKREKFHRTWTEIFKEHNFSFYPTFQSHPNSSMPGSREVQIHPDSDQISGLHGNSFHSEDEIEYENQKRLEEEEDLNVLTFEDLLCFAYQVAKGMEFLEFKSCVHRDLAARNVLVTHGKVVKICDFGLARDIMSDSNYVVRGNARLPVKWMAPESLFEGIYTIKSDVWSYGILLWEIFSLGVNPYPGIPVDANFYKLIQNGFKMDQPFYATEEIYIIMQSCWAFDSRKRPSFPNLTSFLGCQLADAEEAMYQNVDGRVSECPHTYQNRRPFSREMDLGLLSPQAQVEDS
Outline: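 Baculovirus-expressed human Flt-3 kinase domain (R571-S993, 5 nM) was reacted with 5 μM ATP and 3 μM poly-EY in Tris pH 7.5 buffer with MgCl2/MnCl2 for 3 h at ambient temperature. Remaining ATP was read by luciferase-luciferin chemiluminescence, with ATP consumption standardized to 25-45%, for IC50.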

EGFR = EGFR (Homo sapiens, UniProt P00533); assay: EGFR kinase inhibition assay; assay type: biochemical
c-Kit = c-Kit (Homo sapiens, UniProt P10721); assay: c-Kit biochemical assay (AlphaScreen)
Outline: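 Kinase, compound, ATP and biotinylated poly(Glu,Tyr) 4:1 reacted 1 hr at ambient temperature; quenched with EDTA buffer (pH 7.4) containing streptavidin donor and anti-phosphotyrosine PY100 acceptor beads, incubated 16 hr, then AlphaScreen signal read to give IC50.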

c-Kit, sequence (P10721 26-976): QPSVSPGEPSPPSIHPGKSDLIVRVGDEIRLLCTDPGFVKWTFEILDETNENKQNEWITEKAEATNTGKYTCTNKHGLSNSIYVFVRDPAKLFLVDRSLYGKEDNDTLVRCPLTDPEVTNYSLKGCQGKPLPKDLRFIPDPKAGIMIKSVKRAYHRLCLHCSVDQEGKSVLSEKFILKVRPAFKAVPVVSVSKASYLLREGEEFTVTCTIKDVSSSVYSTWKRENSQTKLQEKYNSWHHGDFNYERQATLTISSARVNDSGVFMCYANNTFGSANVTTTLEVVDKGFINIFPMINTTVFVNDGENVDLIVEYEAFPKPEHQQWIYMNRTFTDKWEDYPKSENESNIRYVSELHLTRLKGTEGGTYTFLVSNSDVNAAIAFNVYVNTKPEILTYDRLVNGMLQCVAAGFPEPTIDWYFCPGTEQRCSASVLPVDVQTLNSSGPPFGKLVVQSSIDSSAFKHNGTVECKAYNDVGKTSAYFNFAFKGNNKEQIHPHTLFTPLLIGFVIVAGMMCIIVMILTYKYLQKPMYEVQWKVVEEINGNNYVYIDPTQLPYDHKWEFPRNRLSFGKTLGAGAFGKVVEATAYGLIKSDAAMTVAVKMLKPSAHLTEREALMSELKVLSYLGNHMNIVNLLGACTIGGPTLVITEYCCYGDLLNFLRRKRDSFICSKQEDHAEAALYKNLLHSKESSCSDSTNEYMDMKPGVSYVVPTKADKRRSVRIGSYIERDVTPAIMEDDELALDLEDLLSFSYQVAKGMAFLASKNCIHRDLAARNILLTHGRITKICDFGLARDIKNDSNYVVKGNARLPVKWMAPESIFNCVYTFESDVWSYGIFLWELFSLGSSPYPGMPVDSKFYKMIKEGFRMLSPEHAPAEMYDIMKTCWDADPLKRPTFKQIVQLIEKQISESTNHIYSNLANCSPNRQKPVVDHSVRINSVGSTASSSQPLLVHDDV
EGFR, sequence (P00533 25-1210, species assumed): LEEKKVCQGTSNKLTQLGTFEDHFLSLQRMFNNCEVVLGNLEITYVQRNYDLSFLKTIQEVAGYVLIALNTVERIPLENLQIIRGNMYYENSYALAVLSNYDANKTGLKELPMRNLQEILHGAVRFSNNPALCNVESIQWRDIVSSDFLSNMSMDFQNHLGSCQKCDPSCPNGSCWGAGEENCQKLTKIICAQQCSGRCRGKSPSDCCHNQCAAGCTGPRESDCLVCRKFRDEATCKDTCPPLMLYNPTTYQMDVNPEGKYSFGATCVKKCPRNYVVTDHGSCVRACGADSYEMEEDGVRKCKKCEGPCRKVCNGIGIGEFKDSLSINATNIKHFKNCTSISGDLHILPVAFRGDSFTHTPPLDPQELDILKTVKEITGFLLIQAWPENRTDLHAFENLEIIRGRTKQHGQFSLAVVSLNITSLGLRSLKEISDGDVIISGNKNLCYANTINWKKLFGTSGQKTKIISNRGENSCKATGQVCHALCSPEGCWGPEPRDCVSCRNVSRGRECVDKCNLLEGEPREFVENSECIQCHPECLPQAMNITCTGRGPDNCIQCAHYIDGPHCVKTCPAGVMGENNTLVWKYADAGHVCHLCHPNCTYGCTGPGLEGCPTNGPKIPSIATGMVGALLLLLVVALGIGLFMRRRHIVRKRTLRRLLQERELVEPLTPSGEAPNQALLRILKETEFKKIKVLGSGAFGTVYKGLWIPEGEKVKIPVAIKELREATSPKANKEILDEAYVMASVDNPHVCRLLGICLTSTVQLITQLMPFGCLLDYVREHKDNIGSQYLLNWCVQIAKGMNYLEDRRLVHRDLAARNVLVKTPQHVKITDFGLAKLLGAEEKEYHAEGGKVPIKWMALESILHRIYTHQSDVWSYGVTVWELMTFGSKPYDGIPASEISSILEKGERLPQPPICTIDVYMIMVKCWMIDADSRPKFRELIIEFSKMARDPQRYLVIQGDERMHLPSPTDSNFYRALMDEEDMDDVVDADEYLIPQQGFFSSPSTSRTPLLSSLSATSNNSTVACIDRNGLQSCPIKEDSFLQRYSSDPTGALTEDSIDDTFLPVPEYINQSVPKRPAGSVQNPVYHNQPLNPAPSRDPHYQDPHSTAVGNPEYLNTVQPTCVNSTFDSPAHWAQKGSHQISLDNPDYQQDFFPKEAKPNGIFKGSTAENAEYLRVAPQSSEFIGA

CN1CCN(c2ccc(-c3cc(-c4ccc(NC(=O)Nc5ccc6c(c5)OCCO6)cc4)n[nH]3)cc2)CC1 [Entry 42, N-(2,3-dihydro-1,4-benzodioxin-6-yl)-N′-(4-{5-[4-(4-methylpiperazin-1-yl)phenyl]-1H-pyrazol-3-yl}phenyl)urea]
IC50 (EphB4): > 5 µM | IC50 (flt-3): < 0.05 µM | IC50 (EGFR): > 5 µM | IC50 (c-Kit): 0.05 to 0.5 µM

COc1cc(/C=C/c2cc(/C=C/c3ccc(F)cc3)n[nH]2)ccc1O [Entry 44, 4-((E)-2-{3-[(E)-2-(4-fluorophenyl)ethenyl]-1H-pyrazol-5-yl}ethenyl)-2-(methyloxy)phenol]
IC50 (EphB4): > 5 µM | IC50 (flt-3): < 0.05 µM | IC50 (EGFR): > 5 µM | IC50 (c-Kit): 0.05 to 0.5 µM

Oc1ccc(/C=C/c2cc(-c3cc4ccccc4o3)n[nH]2)cc1 [Entry 45, 4-{(E)-2-[3-(1-benzofuran-2-yl)-1H-pyrazol-5-yl]ethenyl}phenol]
IC50 (EphB4): > 5 µM | IC50 (flt-3): 0.05 to 0.5 µM | IC50 (EGFR): > 5 µM | IC50 (c-Kit): 0.05 to 0.5 µM

CN1CCN(c2ccc(-c3cc(-c4ccc(NC(=O)C(=O)NCCc5ccccc5)cc4)[nH]n3)cc2)CC1 [Entry 46, N-(4-{3-[4-(4-methylpiperazin-1-yl)phenyl]-1H-pyrazol-5-yl}phenyl)-N′-(2-phenylethyl)ethanediamide]
IC50 (EphB4): 0.5 to 5 µM | IC50 (flt-3): > 5 µM | IC50 (EGFR): > 5 µM | IC50 (c-Kit): 0.05 to 0.5 µM

Oc1ccc(/C=C/c2cc(-c3nc4ccccc4[nH]3)n[nH]2)cc1 [Entry 47, 4-{(E)-2-[3-(1H-benzimidazol-2-yl)-1H-pyrazol-5-yl]ethenyl}phenol]
IC50 (EphB4): 0.5 to 5 µM | IC50 (flt-3): < 0.05 µM | IC50 (EGFR): > 5 µM | IC50 (c-Kit): 0.05 to 0.5 µM

COc1cc(/C=C/c2cc(/C=C/c3ccc(Cl)cc3)n[nH]2)ccc1O [Entry 48, 4-((E)-2-{3-[(E)-2-(4-chlorophenyl)ethenyl]-1H-pyrazol-5-yl}ethenyl)-2-(methyloxy)phenol]
IC50 (EphB4): > 5 µM | IC50 (flt-3): < 0.05 µM | IC50 (EGFR): > 5 µM | IC50 (c-Kit): 0.05 to 0.5 µM

Oc1ccc(/C=C/c2cc(-c3cc4ccccc4s3)n[nH]2)cc1 [Entry 49, 4-{(E)-2-[3-(1-benzothien-2-yl)-1H-pyrazol-5-yl]ethenyl}phenol]
IC50 (EphB4): > 5 µM | IC50 (flt-3): 0.05 to 0.5 µM | IC50 (EGFR): > 5 µM | IC50 (c-Kit): 0.05 to 0.5 µM

O=C(Nc1ccc(-c2cc(-c3ccccc3)n[nH]2)cc1)Nc1ccc(Cl)c(C(F)(F)F)c1 [Entry 50, N-[4-chloro-3-(trifluoromethyl)phenyl]-N′-[4-(3-phenyl-1H-pyrazol-5-yl)phenyl]urea]
IC50 (EphB4): > 5 µM | IC50 (flt-3): 0.05 to 0.5 µM | IC50 (EGFR): > 5 µM | IC50 (c-Kit): 0.05 to 0.5 µM

CN1CCN(c2ccc(-c3cc(/C=C/c4ccc(O)cc4)[nH]n3)cc2)CC1 [Entry 51, 4-((E)-2-{3-[4-(4-methylpiperazin-1-yl)phenyl]-1H-pyrazol-5-yl}ethenyl)phenol]
IC50 (EphB4): > 5 µM | IC50 (flt-3): < 0.05 µM | IC50 (EGFR): > 5 µM | IC50 (c-Kit): 0.05 to 0.5 µM

Cc1ccc(F)cc1NC(=O)Nc1ccc(-c2cc(-c3ccc(N4CCN(C)CC4)cc3)[nH]n2)cc1 [Entry 53, N-(5-fluoro-2-methylphenyl)-N′-(4-{5-[4-(4-methylpiperazin-1-yl)phenyl]-1H-pyrazol-3-yl}phenyl)urea]
IC50 (EphB4): > 5 µM | IC50 (flt-3): 0.05 to 0.5 µM | IC50 (EGFR): > 5 µM | IC50 (c-Kit): 0.05 to 0.5 µM

Oc1ccc(/C=C/c2cc(-c3ccccc3)n[nH]2)cc1 [Entry 54, 4-[(E)-2-(3-phenyl-1H-pyrazol-5-yl)ethenyl]phenol]
IC50 (EphB4): > 5 µM | IC50 (flt-3): < 0.05 µM | IC50 (EGFR): > 5 µM | IC50 (c-Kit): 0.05 to 0.5 µM

COc1cc(/C=C/c2cc(-c3ccccc3)[nH]n2)ccc1O [Entry 55, 2-(methyloxy)-4-[(E)-2-(5-phenyl-1H-pyrazol-3-yl)ethenyl]phenol]
IC50 (EphB4): > 5 µM | IC50 (flt-3): 0.05 to 0.5 µM | IC50 (EGFR): > 5 µM | IC50 (c-Kit): 0.05 to 0.5 µM

Oc1ccc(/C=C/c2cc(-c3ccc4ccccc4c3)[nH]n2)cc1 [Entry 56, 4-[(E)-2-(5-naphthalen-2-yl-1H-pyrazol-3-yl)ethenyl]phenol]
IC50 (EphB4): > 5 µM | IC50 (flt-3): 0.05 to 0.5 µM | IC50 (EGFR): > 5 µM | IC50 (c-Kit): 0.05 to 0.5 µM
